Results reported in patent publication US7166634B2, “Bis-indole pyrroles useful as antimicrobials agents” (Nereus Pharmaceuticals, Inc., priority 2004, dated 2007).
≈ marks a conversion by molar mass, not a printed value.

Assays:
Assay in all cases: MIC, broth microdilution (NCCLS M7-A5)
Type in all cases: cell-based
E. coli - ATCC 25922 = details: Table 3
Procedure: (§1) Minimum inhibitory concentrations (MICs) are determined according to the National Committee for Clinical Laboratory Standards (NCCLS) susceptibility test guideline M7-A5 (Ferraro, M. 2001 Methods for Dilution Antimicrobial Susceptibility Tests for Bacteria that Grow Aerobically; Approved Standard (NCCLS). National Committee for Clinical Laboratory Standards (NCCLS), Villanova) to quantify the antimicrobial activity of the compounds of the present embodiment against various pathogenic bacteria. Susceptibility testing is performed by broth microdilution in accordance with National Committee for Clinical Laboratory Standards (NCCLS) guidelines. This procedure entails combining the test compounds with a standardized number of cells, incubating at the temperature and amount of time appropriate for each particular organism, and visually scoring the concentration at which no growth was apparent in the test wells. The panel includes both drug sensitive and drug resistant isolates of both gram-positive and gram-negative bacteria, including: S. aureus (both MSSA and MRSA), S. pneumoniae (wild type and penicillin-resistant), vancomycin-sensitive E. faecalis, vancomycin-resistant E. faecium, E. coli, H. influenzae and P. aeruginosa.
(§2) Susceptibility testing was performed by broth microdilution in accordance with National Committee for Clinical Laboratory Standards (NCCLS) guidelines. Antimicrobial data for compounds of Formulae II, III, IV, VI, VII, VIII, IX, XII, XIII, XIV, XV′, XV, XVI, XVII, XVIII, XXI′, XXII, XXIII, XXIV, and XXV are shown in Tables 3, 4 and 5.

S. aureus - MSSA (29213) = details: S. aureus - MSSA; Table 3
Procedure: as §1, §2

[1] = test system: H. influenzae - ATCC 49766; details: H. influenzae - ATCC 49766; Table 3
Procedure: as §1, §2

[2] = test system: S. pneumoniae - penicillin resistant (51915); details: S. pneumoniae - penicillin resistant; Table 3
Procedure: as §1, §2

[3] = test system: H. influenzae - ATCC 49247; details: H. influenzae - ATCC 49247; Table 3
Procedure: as §1, §2

E. coli - imp = details: E. coli - imp; Table 3
Procedure: as §1, §2

[4] = test system: S. pneumoniae - penicillin sensitive (49619); details: S. pneumoniae - penicillin sensitive; Table 3
Procedure: as §1, §2

[5] = test system: E. faecium - Van^r (VRE 700221); details: E. faecium - Van^r; Table 3
Procedure: as §1, §2

S. aureus - MRSA (43300) = details: S. aureus - MRSA; Table 3
Procedure: as §1, §2

[6] = test system: S. epidermidis - ATCC 700582; details: S. epidermidis - ATCC 700582; Table 3
Procedure: as §1, §2

[7] = test system: E. faecalis - Van^s (VSE 29212); details: E. faecalis - Van^s; Table 3
Procedure: as §1, §2

[8] = test system: S. epidermidis - ATCC 700578; details: S. epidermidis - ATCC 700578; Table 3
Procedure: as §1, §2

COC(=O)c1[nH]cc(-c2c[nH]c3ccc(Cl)cc23)c1-c1c[nH]c2ccc(Cl)cc12 [III]
MIC (E. coli - ATCC 25922): >32 µg/mL | MIC (S. aureus - MSSA (29213)): 1.8 µg/mL (≈ 4.24 µM) | MIC [1]: 12 µg/mL (≈ 28.3 µM) | MIC [2]: 24 µg/mL (≈ 56.6 µM) | MIC [3]: 16 µg/mL (≈ 37.7 µM) | MIC (E. coli - imp): 16 µg/mL (≈ 37.7 µM) | MIC [4]: 24 µg/mL (≈ 56.6 µM) | MIC [5]: 8 µg/mL (≈ 18.9 µM) | MIC (S. aureus - MRSA (43300)): 2 µg/mL (≈ 4.71 µM) | MIC [6]: 4 µg/mL (≈ 9.43 µM) | MIC [7]: 8 µg/mL (≈ 18.9 µM) | MIC [8]: 4 µg/mL (≈ 9.43 µM)
